These compounds were tested against PHGDH (Homo sapiens (Human), UniProt O43175) (assay: PHGDH inhibition, coupled assay with PSAT1/PSPH and diaphorase/resazurin readout). Conditions: Table E9; mixture with PSAT1, PSPH; diaphorase/resazurin reporter.
Chain of PHGDH (O43175 whole entry): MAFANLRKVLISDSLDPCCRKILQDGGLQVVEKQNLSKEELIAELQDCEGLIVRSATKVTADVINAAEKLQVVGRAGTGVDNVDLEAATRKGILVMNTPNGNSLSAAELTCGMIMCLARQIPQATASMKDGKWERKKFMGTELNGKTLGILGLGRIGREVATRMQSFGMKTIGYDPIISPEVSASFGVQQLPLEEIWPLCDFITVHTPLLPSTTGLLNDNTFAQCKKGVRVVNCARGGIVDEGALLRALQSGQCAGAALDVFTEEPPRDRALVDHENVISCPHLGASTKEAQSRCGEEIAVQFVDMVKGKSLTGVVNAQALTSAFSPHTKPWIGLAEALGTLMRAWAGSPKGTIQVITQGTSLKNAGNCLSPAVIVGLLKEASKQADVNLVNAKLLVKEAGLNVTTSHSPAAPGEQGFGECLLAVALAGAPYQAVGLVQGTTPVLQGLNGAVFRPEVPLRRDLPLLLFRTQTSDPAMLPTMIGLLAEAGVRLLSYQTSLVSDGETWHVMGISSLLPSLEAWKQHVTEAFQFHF
Type: biochemical
Description: Compounds of the invention were assayed for inhibition of the activity phosphoglycerate dehydrogenase (PHGDH). The compounds were assayed in a mixture comprising PHGDH, PSAT1, PSPH, NADH, and glutamate. Diaphorase and resazurin were used as a fluorescent reporter system.
In this endogenous pathway coupled assay, the production of NADH by PHGDH was measured through the diaphorasemediated reduction of resazurin (See, e.g., Chakraborty, S., Sakka, M., Kimura, T. & Sakka, K. “Characterization of a dihydrolipoyl dehydrogenase having diaphorase activity of Clostridium kluyveri.” BioscL Biotechnol. Biochem. 72, 982-988 (2008)).
PHGDH assay buffer contained 50 mM TEA pH 8.0, 10 mM MgCl2, 0.05% BSA, and 0.01% Tween-20. PHGDH enzyme buffer consisted of assay buffer with 20 nM PHGDH and 0.2 mg/mL diaphorase. PHGDH substrate buffer contained 0.3 mM NAD 1.25 mM glutamate, 0.1 mM 3-phosphoglycerate, 0.2 mM resazurin, 1 μM PSAT1, and 1 μM PSPH. qHTS was performed in 1536-well plates dispensed with a BioRAPTR FRD. Each well contained equal volumes of substrate buffer and assay buffer. Plates were read at 0 minutes and 20 minutes at room temperature with a ViewLux uHTS Microplate Imager (PerkinElmer). Follow-up assays were performed in black 384-well plates (Greiner) in 20 μL of enzyme buffer to which compounds were added in dose-response with an HP D300 digital dispenser (Hewlett-Packard), followed by addition of 20 μL of substrate buffer. Plates were incubated at room temperature (25° C.) and read at 0 and 20 minutes with a Spectramax M5 plate reader (Molecular Devices) in fluorescence intensity mode with a λex=550 nm and λem=600 nm (emission cutoff=590 nm).
Compound `Cc1cc(C)nc(NC(=S)N2CCN(c3cccc(Cl)c3Cl)CC2)c1` [Compound 93] has an IC50 of 5 to 10 µM.
`COc1ccnc(NC(=S)N2CCN(c3cc(Cl)cc(Cl)c3)CC2)c1` [Compound 178] was tested, and the IC50 was 5 to 10 µM.
`Cc1cc(C)nc(NC(=S)N2CC3CN(c4ccc(Cl)cc4C(F)(F)F)CC3C2)c1` (stereo not shown) [Compound 223] gave an IC50 of 10 to 20 µM.
In the case of `Cc1cc(C)nc(NC(=S)N2CCN(c3ccc(Cl)cc3C(F)(F)F)CC2)c1` [Compound 210], the IC50 is reported as 10 to 20 µM.
`COc1ccc(CN2CCN(C(=S)Nc3cc(C)cc(C)n3)CC2)cc1` [Compound 293] showed an IC50 of 10 to 20 µM.
With `Cc1ccnc(NC(=S)N2CCN(c3cc(F)cc(Cl)c3)CC2)c1` [Compound 141] the IC50 was under 5 µM.
For `Cc1ccc2nc(NC(=S)N3CCN(c4cccc(C(F)(F)F)c4)CC3)[nH]c2c1` [Compound 239], the IC50 was 10 to 20 µM.
Compound `Cc1ccnc(NC(=S)N2CC3CN(c4ncc(C(F)(F)F)cc4Cl)CC3C2)c1` (stereo not shown) [Compound 227] has an IC50 of 10 to 20 µM.
In the case of `COc1ccnc(NC(=S)N2CCN(c3cccc(C(F)(F)F)n3)CC2)c1` [Compound 184], the IC50 is reported as 5 to 10 µM.
For `Cc1cc(C)nc(NC(=S)N2CCN(c3cc(Cl)cc(Cl)c3)CC2)c1` [Compound 65], the IC50 was 5 to 10 µM.
Compound `Cc1cc(C)nc(NC(=S)N2CCN(c3ncccc3C#N)CC2)c1` [Compound 121] has an IC50 of at least 20 µM.
Work on `Cc1cc(C)nc(NC(=S)N2CCN(c3ccc4nncn4c3)CC2)c1` [Compound 161] yielded an IC50 of at least 20 µM.
`Cc1cc(C)nc(NC(=S)N2CCN(c3nccc4occc34)CC2)c1` [Compound 103] showed an IC50 of 10 to 20 µM.
`Cc1ccnc(NC(=S)N2CCN(c3ccccc3C(F)(F)F)CC2)c1` [Compound 41] showed an IC50 of 5 to 10 µM.
`COc1cccc(NC(=S)N2CCN(c3cc(Cl)cc(Cl)c3)CC2)n1` [Compound 187] was tested, and the IC50 was at least 20 µM.
In the case of `Cc1cc(C)nc(NC(=S)N2CCN(c3ccc(F)c(Cl)c3)CC2)c1` [Compound 215], the IC50 is reported as 5 to 10 µM.
With `Cc1cc(C)nc(NC(=S)N2CCN(c3ncc(Cl)cc3Cl)CC2)c1` [Compound 81] the IC50 was 5 to 10 µM.
Compound `Cc1cc(C)nc(NC(=S)N2CCN(c3ccc(C(F)(F)F)cc3[N+](=O)[O-])CC2)c1` [Compound 110] has an IC50 of 5 to 10 µM.
In the case of `Cc1cc(C)nc(NC(=S)N2CCN(Cc3ccccc3Br)CC2)c1` [Compound 285], the IC50 is reported as 10 to 20 µM.
Work on `Cc1ccnc(NC(=S)N2CCN(c3ccc(O)cc3)CC2)c1` [Compound 13] yielded an IC50 of at least 20 µM.
In the case of `COc1cccc(NC(=S)N2CCN(c3cc(C(F)(F)F)cc(C(F)(F)F)c3)CC2)n1` [Compound 188], the IC50 is reported as under 5 µM.
`Cc1ccnc(NC(=S)N2CCN(c3ccc(C#N)cc3)CC2)c1` [Compound 10] was tested, and the IC50 was at least 20 µM.
`Cc1cc(C)nc(NC(=S)N2CCN(Cc3ccc(C(F)(F)F)cc3)C(C(=O)O)C2)c1` (stereo not shown) [Compound 295, 4-((4,6-dimethylpyridin-2-yl)carbamothioyl)-1-(4-(trifluoromethyl)benzyl)piperazine-2-carboxylic acid] showed an IC50 of 5 to 10 µM.
`Cc1cc(C)nc(NC(=S)N2CCN(c3ccccn3)CC2)c1` [Compound 77] was tested, and the IC50 was at least 20 µM.
`Cc1cc(C)nc(NC(=S)N2CCN(Cc3ccc(C(F)(F)F)cc3)[C@H](C)C2)c1` [Compound 298] gave an IC50 of under 5 µM.
`Cc1ccnc(NC(=S)N[C@H]2CCN(c3cccc(C(F)(F)F)c3)C2)c1` [Compound 43] gave an IC50 of at least 20 µM.
In the case of `Cc1cc(C)nc(NC(=S)N2CCN(c3ccc(Cl)cc3F)CC2)c1` [Compound 219], the IC50 is reported as 5 to 10 µM.
`Cc1cc(C)nc(NC(=S)N2CCN(c3ccc4occc4c3)CC2)c1` [Compound 164] gave an IC50 of 10 to 20 µM.
`COc1ccccc1CN1CCN(C(=S)Nc2cc(C)cc(C)n2)CC1` [Compound 286] gave an IC50 of 10 to 20 µM.
Work on `Cc1cc(C)nc(NC(=S)N2CCN(c3cccc4ccccc34)CC2)c1` [Compound 69] yielded an IC50 of 5 to 10 µM.
`FC(F)(F)c1cccc(N2CCN(C(=S)Nc3nc4ccccc4[nH]3)CC2)c1` [Compound 228] was tested, and the IC50 was under 5 µM.
Work on `Cc1ccnc(NC(=S)N2CCN(c3cc(Cl)cc(Cl)c3)CC2)c1` [Compound 169] yielded an IC50 of 5 to 10 µM.
In the case of `Cc1cc(C)nc(NC(=S)N2CCN(c3cc(C(F)(F)F)nc4ccccc34)CC2)c1` [Compound 122], the IC50 is reported as under 5 µM.
Work on `FC(F)(F)c1ccc(N2CCN(C(=S)Nc3ccccn3)CC2)cc1` [Compound 25] yielded an IC50 of 5 to 10 µM.
